{
  "source": "patent US4492757A",
  "about": "“Process for preparing L-threonine” (Denki Kagaku Kogyo Kabushiki Kaisha, priority 1981, dated 1985)",
  "key": {"D-threonine-aldolase": {"tested_on": "D-threonine-aldolase", "assay": "Agents inhibiting, activating or stabilizing the activity of the novel enzyme", "type": "biochemical"}, "L-allothreonine-aldolase": {"tested_on": "L-allothreonine-aldolase", "assay": "Inhibitants, stabilizers and coenzyme of L-allothreonine-aldolase", "type": "biochemical"}},
  "data": [
    {"smiles": "OCCS", "note": "[mercaptoethanol]", "values": [
      {"measurement": "effect of the agent on the activity of the novel enzyme", "setting": "D-threonine-aldolase", "value": "activated and stabilized"},
      {"measurement": "effect of the agent on L-allothreonine-aldolase", "setting": "L-allothreonine-aldolase", "value": "Stabilizers"}
    ]},
    {"smiles": "[Cu+2]", "note": "[Cu^2+]", "values": [
      {"measurement": "effect of the agent on the activity of the novel enzyme", "setting": "D-threonine-aldolase", "value": "inhibited"},
      {"measurement": "effect of the agent on L-allothreonine-aldolase", "setting": "L-allothreonine-aldolase", "value": "Inhibitants"}
    ]},
    {"smiles": "O=C(O)c1cc[c]([Hg][Cl])cc1", "note": "[p-chloromercuribenzoate]", "values": [
      {"measurement": "effect of the agent on the activity of the novel enzyme", "setting": "D-threonine-aldolase", "value": "inhibited"}
    ]},
    {"smiles": "O=S([O-])O.[Na+]", "note": "[sodium hydrogen sulfite]", "values": [
      {"measurement": "effect of the agent on the activity of the novel enzyme", "setting": "D-threonine-aldolase", "value": "activated and stabilized"}
    ]},
    {"smiles": "[Mn+2]", "note": "[Mn^2+]", "values": [
      {"measurement": "effect of the agent on the activity of the novel enzyme", "setting": "D-threonine-aldolase", "value": "activated and stabilized"}
    ]},
    {"smiles": "NO", "note": "[hydroxylamine]", "values": [
      {"measurement": "effect of the agent on the activity of the novel enzyme", "setting": "D-threonine-aldolase", "value": "inhibited"}
    ]},
    {"smiles": "[Pd+2]", "note": "[Pd^2+]", "values": [
      {"measurement": "effect of the agent on the activity of the novel enzyme", "setting": "D-threonine-aldolase", "value": "inhibited"}
    ]},
    {"smiles": "[Co+2]", "note": "[Co^2+]", "values": [
      {"measurement": "effect of the agent on the activity of the novel enzyme", "setting": "D-threonine-aldolase", "value": "activated and stabilized"}
    ]},
    {"smiles": "Cc1ncc(COP(=O)(O)O)c(C=O)c1O", "note": "[pyridoxal-5'-phosphate]", "values": [
      {"measurement": "coenzyme", "setting": "L-allothreonine-aldolase", "value": "Coenzyme"}
    ]},
    {"smiles": "[Zn+2]", "note": "[Zn^2+]", "values": [
      {"measurement": "effect of the agent on the activity of the novel enzyme", "setting": "D-threonine-aldolase", "value": "inhibited"}
    ]},
    {"smiles": "[Mg+2]", "note": "[Mg^2+]", "values": [
      {"measurement": "effect of the agent on the activity of the novel enzyme", "setting": "D-threonine-aldolase", "value": "activated and stabilized"}
    ]},
    {"smiles": "[Hg+2]", "note": "[Hg^2+]", "values": [
      {"measurement": "effect of the agent on the activity of the novel enzyme", "setting": "D-threonine-aldolase", "value": "inhibited"},
      {"measurement": "effect of the agent on L-allothreonine-aldolase", "setting": "L-allothreonine-aldolase", "value": "Inhibitants"}
    ]},
    {"smiles": "O=S([O-])[O-].[Na+].[Na+]", "note": "[sodium sulfite]", "values": [
      {"measurement": "effect of the agent on the activity of the novel enzyme", "setting": "D-threonine-aldolase", "value": "activated and stabilized"},
      {"measurement": "effect of the agent on L-allothreonine-aldolase", "setting": "L-allothreonine-aldolase", "value": "Stabilizers"}
    ]},
    {"smiles": "[Fe+2]", "note": "[Fe^2+]", "values": [
      {"measurement": "effect of the agent on the activity of the novel enzyme", "setting": "D-threonine-aldolase", "value": "activated and stabilized"}
    ]},
    {"smiles": "O[C@H](CS)[C@H](O)CS", "note": "(racemic) [dithiothreitol]", "values": [
      {"measurement": "effect of the agent on the activity of the novel enzyme", "setting": "D-threonine-aldolase", "value": "activated and stabilized"},
      {"measurement": "effect of the agent on L-allothreonine-aldolase", "setting": "L-allothreonine-aldolase", "value": "Stabilizers"}
    ]},
    {"smiles": "[Ag+]", "note": "[Ag^+]", "values": [
      {"measurement": "effect of the agent on the activity of the novel enzyme", "setting": "D-threonine-aldolase", "value": "inhibited"},
      {"measurement": "effect of the agent on L-allothreonine-aldolase", "setting": "L-allothreonine-aldolase", "value": "Inhibitants"}
    ]}
  ]
}
